Consider 15 compounds from patent publication US8722683B2, “Benzodioxole piperazine compounds” (Hoffmann LA-Roche Inc., priority 2011, dated 2014).

In one data set the target is 5-HT2A receptor (Homo sapiens (Human), UniProt P28223). The data set can be described thus: Radioligand binding ([3H]-ketanserin) to cloned 5-HT2A receptor expressed in HEK-293 EBNA cells. How it is done:
HEK293 EBNA cells were transiently transfected with expression plasmids encoding for the human D2 or D3 or for the human 5-HT2A receptor, respectively. The cells were harvested 48 h post-transfection, washed three times with cold PBS and stored at −80° C. prior to use. The pellet was suspended in cold 50 mM Tris-HCl buffer containing 10 mM EDTA (pH 7.4) and was homogenized with a Polytron (Kinematica AG, Basel, Switzerland) for 20-30 sec at 12.000 rpm. After centrifugation at 48.000×g for 30 min at 4° C., the pellet was resuspended in cold 10 mM Tris-HCl buffer containing 0.1 mM EDTA (pH 7.4), homogenized, and centrifuged as above. This pellet was further resuspended in a smaller volume of ice cold 10 mM Tris-HCl buffer containing 0.1 mM EDTA (pH 7.4) and homogenized with a Polytron for 20-30 sec at 12.000 rpm. The protein content of this homogenate was determined with the Bio-Rad (Bradford) Protein Assay (Biorad Laboratories GmbH, München, Germany) according to the instructions of the manufacturer using gamma globulin as the standard. This homogenate was stored at −80° C. in aliquots and thawed immediately prior to use.
Radioligand Binding Assay
Aliquots of membrane preparations were thawed at RT, resupended in assay buffer (D2, D3: 50 mM Tris-HCl, 120 mM NaCl, 5 mM MgCl2, 1 mM EDTA, 5 mM KCl, 1.5 mM CaCl2, pH=7.4; 5-HT2A: 50 mM Tris-HCl, 10 mM MgCl2, 1 mM EGTA, pH=7.4), homogenized with a Polytron for 20-30 sec at 12.000 rpm and adjusted to a final concentration of approximately 7.5 μg protein/well (D2, D3) and 15 μg protein/well (5-HT2A), respectively.
The binding affinity (Ki) of the compounds was determined using radioligand binding. […] The nonspecific binding was determined with equally composed reaction mixtures in the presence of 10 μM unlabelled spiperone. Per well 45 μl of Microscint 40 (Perkin Elmer, Schwerzenbach, Switzerland) was added, plates for sealed, shaken for 20 min and counted for 3 min on a Topcount Microplate Scintillation Counter (Canberra Packard SA, Zürich, Switzerland) with quenching correction.
The CPM value for each duplicate of a concentration of competing compound was averaged (y1), then the % specific binding was calculated according to the equation (((y1−non-specific)/(total binding−non-specific))×100). Graphs were plotted with the % specific binding using XLfit, a curve fitting program that iteratively plots the data using Levenberg-Marquardt algorithm. The single site competition analysis equation used was y=A+((B−A)/(1+((x/C)D))), where y is the % specific binding, A is the minimum y, B is the maximum y, C is the IC50, x is the log 10 of the concentration of the competing compound and D is the slope of the curve (the Hill Coefficient). […] The affinity constant (Ki) was calculated using the Cheng-Prusoff equation Ki=(IC50/1+([L]/Kd), where [L] is the concentration of radioligand and Kd is the dissociation constant of the radioligand at the receptor as determined by the saturation isotherm.

In a further data set the target is D2 receptor (Homo sapiens (Human), UniProt P14416). The experiment in a line: Radioligand binding ([3H]-spiperone) to cloned D2 receptor expressed in HEK-293 EBNA cells. To be noted: HEK293 EBNA membranes, 0.7 nM [3H]-spiperone.
Chain of D2 receptor (P14416 whole entry): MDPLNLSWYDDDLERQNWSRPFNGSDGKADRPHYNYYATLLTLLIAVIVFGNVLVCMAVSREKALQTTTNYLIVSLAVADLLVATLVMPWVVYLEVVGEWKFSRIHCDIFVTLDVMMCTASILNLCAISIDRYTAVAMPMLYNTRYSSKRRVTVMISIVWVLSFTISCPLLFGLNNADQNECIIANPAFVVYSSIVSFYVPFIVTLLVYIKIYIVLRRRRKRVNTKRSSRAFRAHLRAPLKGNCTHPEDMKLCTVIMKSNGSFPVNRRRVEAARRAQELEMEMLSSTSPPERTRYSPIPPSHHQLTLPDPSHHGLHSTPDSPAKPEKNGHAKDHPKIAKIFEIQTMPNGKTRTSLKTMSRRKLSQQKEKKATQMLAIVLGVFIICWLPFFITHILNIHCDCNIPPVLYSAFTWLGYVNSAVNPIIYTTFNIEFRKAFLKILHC
The target in the next data set is D3 receptor (Homo sapiens (Human), UniProt P35462). The data set can be described thus: Radioligand binding ([3H]-spiperone) to cloned D3 receptor expressed in HEK-293 EBNA cells. To be noted: HEK293 EBNA membranes, 0.5 nM [3H]-spiperone.
Chain of D3 receptor (P35462 whole entry): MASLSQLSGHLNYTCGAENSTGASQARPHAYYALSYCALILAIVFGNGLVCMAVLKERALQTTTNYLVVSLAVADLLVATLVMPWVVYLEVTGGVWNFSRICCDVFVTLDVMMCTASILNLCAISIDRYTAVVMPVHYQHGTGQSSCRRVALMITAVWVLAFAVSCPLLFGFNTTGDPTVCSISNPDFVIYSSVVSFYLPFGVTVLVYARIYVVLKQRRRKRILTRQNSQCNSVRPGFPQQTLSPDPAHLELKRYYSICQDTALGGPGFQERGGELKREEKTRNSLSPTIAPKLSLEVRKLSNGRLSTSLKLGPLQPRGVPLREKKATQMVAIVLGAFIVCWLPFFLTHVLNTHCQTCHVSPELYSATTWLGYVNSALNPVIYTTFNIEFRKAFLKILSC
The mark [1] stands for this setting: human 5-HT2A receptor, HEK293 EBNA membranes, 1.1 nM [3H]-ketanserin.

Read-outs that look alike come from different tables or passages of the source.

Chain of 5-HT2A receptor (P28223 whole entry): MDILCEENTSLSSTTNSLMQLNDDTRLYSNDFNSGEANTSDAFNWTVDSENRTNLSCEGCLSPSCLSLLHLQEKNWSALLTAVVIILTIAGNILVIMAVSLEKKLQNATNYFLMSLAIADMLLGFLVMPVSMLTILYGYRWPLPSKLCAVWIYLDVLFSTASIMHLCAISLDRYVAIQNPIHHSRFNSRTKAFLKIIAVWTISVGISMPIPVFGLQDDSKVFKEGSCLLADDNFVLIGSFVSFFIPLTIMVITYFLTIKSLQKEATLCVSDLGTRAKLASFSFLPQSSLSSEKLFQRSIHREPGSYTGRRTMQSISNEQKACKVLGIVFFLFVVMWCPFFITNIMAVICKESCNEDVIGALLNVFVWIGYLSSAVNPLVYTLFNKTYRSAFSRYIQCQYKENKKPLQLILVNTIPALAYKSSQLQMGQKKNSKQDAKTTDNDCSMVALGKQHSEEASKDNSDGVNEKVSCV

As usually defined, the Ki is a measure of affinity in units of concentration, obtained from inhibition or displacement. High values mean weaker binding, low ones tighter binding. With `O=C(N[C@H]1CC[C@H](CCN2CCN(c3cccc4c3OCO4)CC2)CC1)C1CC1(F)F` (stereo partly drawn) [Example 20, Trans-2,2-Difluoro-cyclopropanecarboxylic acid {4-[2-(4-benzo[1,3]dioxol-4-yl-piperazin-1-yl)-ethyl]-cyclohexyl}-amide], the Ki at 5-HT2A receptor is 26.8 nM; at D2 receptor it was 144 nM; at D3 receptor, 2.55 nM.
In the same order, the values of `COC1(C(=O)N[C@H]2CC[C@H](CCN3CCN(c4cccc5c4OCO5)CC3)CC2)CC1` [Example 62, 1-Methoxy-cyclopropanecarboxylic acid-trans-N-{4-[2-(4-benzo[1,3]dioxol-4-yl-piperazin-1-yl)-ethyl]-cyclohexyl}-amide] are 6.27 nM, 86.5 nM and 14.3 nM.
Broadly, the melting point is the temperature, or range, at which the solid turns liquid. The compound `O=C(CC1COC1)N[C@H]1CC[C@H](CCN2CCN(c3cccc4c3OCO4)CC2)CC1` [Example 22, Trans-N-{4-[2-(4-Benzo[1,3]dioxol-4-yl-piperazin-1-yl)-ethyl]-cyclohexyl}-2-oxetan-3-yl-acetamide] had a melting point of 190 °C. This compound also yielded a Ki at D2 receptor of 106 nM. Besides, at D3 receptor, the affinity, expressed as Ki, was 2.06 nM.
Regarding `CN1CCN(CC(=O)N[C@H]2CC[C@H](CCN3CCN(c4cccc5c4OCO5)CC3)CC2)CC1` [Example 61, Trans-N-{4-[2-(4-Benzo[1,3]dioxol-4-yl-piperazin-1-yl)-ethyl]-cyclohexyl}-2-(4-methyl-piperazin-1-yl)-acetamide], the Ki worked out at 16 nM on 5-HT2A receptor, 38.1 nM on D2 receptor and 4.63 nM on D3 receptor.
On the same counts, the results for `CC(C)[C@H](O)C(=O)N[C@H]1CC[C@H](CCN2CCN(c3cccc4c3OCO4)CC2)CC1` [Example 40, (S)-Trans-N-{4-[2-(4-Benzo[1,3]dioxol-4-yl-piperazin-1-yl)-ethyl]-cyclohexyl}-2-hydroxy-3-methyl-butyramide] are 22.5 nM, 73.4 nM and 14.8 nM.
On the same counts, the results for `CC(C)[C@@H](O)C(=O)N[C@H]1CC[C@H](CCN2CCN(c3cccc4c3OCO4)CC2)CC1` [Example 39, (R)-Trans-N-{4-[2-(4-Benzo[1,3]dioxol-4-yl-piperazin-1-yl)-ethyl]-cyclohexyl}-2-hydroxy-3-methyl-butyramide] are 34.7 nM, 90.2 nM and 5.77 nM.
In the same order, the values of `CC1(C(=O)N[C@H]2CC[C@H](CCN3CCN(c4cccc5c4OCO5)CC3)CC2)COC1` [Example 58, 3-Methyl-oxetane-3-carboxylic acid-trans-N-{4-[2-(4-benzo[1,3]dioxol-4-yl-piperazin-1-yl)-ethyl]-cyclohexyl}-amide] are 15.6 nM, 81.1 nM and 6.82 nM.
Turning to `O=C(N[C@H]1CC[C@H](CCN2CCN(c3cccc4c3OCO4)CC2)CC1)c1ccc2c(c1)OCCO2` [Example 49, 2,3-Dihydro-benzo[1,4]dioxine-6-carboxylic acid-trans-N-{4-[2-(4-benzo[1,3]dioxol-4-yl-piperazin-1-yl)-ethyl]-cyclohexyl}-amide], the Ki at 5-HT2A receptor is 10.7 nM; on D2 receptor, 4820 nM; on D3 receptor it was 4.59 nM.
In the case of `O=C(C[C@@H]1CCCOC1)N[C@H]1CC[C@H](CCN2CCN(c3cccc4c3OCO4)CC2)CC1` (single isomer, unassigned) [Example 32, Trans-N-{4-[2-(4-Benzo[1,3]dioxol-4-yl-piperazin-1-yl)-ethyl]-cyclohexyl}-2-(S) or (R)-tetrahydro-pyran-3-yl-acetamide], the Ki on 5-HT2A receptor (setting [1]) was found to be 26.2 nM; at D2 receptor it was 137 nM.
Consider `O=C(N[C@H]1CC[C@H](CCN2CCN(c3cccc4c3OCO4)CC2)CC1)C1CCOCC1` [Example 43, Tetrahydro-pyran-4-carboxylic acid-trans-N-{4-[2-(4-benzo[1,3]dioxol-4-yl-piperazin-1-yl)-ethyl]-cyclohexyl}-amide], for which the Ki on 5-HT2A receptor stood at 7.74 nM; on D2 receptor it was 219 nM; at D3 receptor, 4.48 nM.
On the same counts, the results for `CN(C)S(=O)(=O)N[C@H]1CC[C@H](CCN2CCN(c3cccc4c3OCO4)CC2)CC1` [Example 76, N-trans-{4-[2-(4-benzo[1,3]dioxol-4-yl-piperazin-1-yl)-ethyl]-cyclohexyl}-N,N-dimethyl-sulfamide] are 21.6 nM, 128 nM and 3.36 nM.
On the same counts, the results for `COC(C)CC(=O)N[C@H]1CC[C@H](CCN2CCN(c3cccc4c3OCO4)CC2)CC1` (stereo partly drawn) [Example 21, Trans-N-{4-[2-(4-Benzo[1,3]dioxol-4-yl-piperazin-1-yl)-ethyl]-cyclohexyl}-3-methoxy-butyramide] are 24.3 nM, 181 nM and 2.76 nM.
As for `CCC(O)C(=O)N[C@H]1CC[C@H](CCN2CCN(c3cccc4c3OCO4)CC2)CC1` (stereo partly drawn) [Example 38, Trans-N-{4-[2-(4-Benzo[1,3]dioxol-4-yl-piperazin-1-yl)-ethyl]-cyclohexyl}-2-hydroxy-butyramide], the Ki was found to be 25.8 nM on 5-HT2A receptor, 122 nM on D2 receptor and 12.5 nM on D3 receptor.
As to `O=C(N[C@H]1CC[C@H](CCN2CCN(c3cccc4c3OCO4)CC2)CC1)C1CCS(=O)(=O)C1` (stereo partly drawn) [Example 52, 1,1-Dioxo-tetrahydro-1,6-thiophene-3-carboxylic acid-trans-N-{4-[2-(4-benzo[1,3]dioxol-4-yl-piperazin-1-yl)-ethyl]-cyclohexyl}-amide], the Ki was 4.3 nM on 5-HT2A receptor (setting [1]), 59 nM at D2 receptor and 3.56 nM at D3 receptor.
`CN1CCC(C(=O)N[C@H]2CC[C@H](CCN3CCN(c4cccc5c4OCO5)CC3)CC2)CC1` [Example 57, 1-Methyl-piperidine-4-carboxylic acid-trans-N-{4-[2-(4-benzo[1,3]dioxol-4-yl-piperazin-1-yl)-ethyl]-cyclohexyl}-amide]: the Ki at 5-HT2A receptor was 15.3 nM; on D2 receptor, 62.9 nM; on D3 receptor, 24.9 nM.
